Assay results taken from patent US20130035326A1 (AMBIT BIOSCIENCES CORPORATION, priority 2009, published 2013).
pIC50, pKd: −log10 of the molar value.

Columns and labels:
[1] = molecular target: kinase panel containing either 359 or 386 distinct kinases; experiment: Selectivity score S10 from competition binding against a panel of kinases; settings: compounds at 10 μM; for Kinase specificty: S(10)-359 panel: panel of 359 distinct kinases; for Kinase specificty: S(10)-386 panel: panel of 386 distinct kinases
Summary of the method: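 Compounds were tested at 10 μM in competition binding against T7 phage-fused or HEK-293-expressed DNA-tagged kinases with immobilized affinity ligands, 1 h at room temperature. Bound kinase was quantified by qPCR as percent of DMSO control; S10 is the fraction of distinct kinases (mutants excluded) with POC below 10.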

KIT kinase = molecular target: T1, KIT kinase (Homo sapiens, UniProt P10721); experiment: Competition binding assay, KIT Kd
T1 construct: made in house; host or cells: T7 phage display or HEK-293 cells
T1 sequence (P10721 26-976): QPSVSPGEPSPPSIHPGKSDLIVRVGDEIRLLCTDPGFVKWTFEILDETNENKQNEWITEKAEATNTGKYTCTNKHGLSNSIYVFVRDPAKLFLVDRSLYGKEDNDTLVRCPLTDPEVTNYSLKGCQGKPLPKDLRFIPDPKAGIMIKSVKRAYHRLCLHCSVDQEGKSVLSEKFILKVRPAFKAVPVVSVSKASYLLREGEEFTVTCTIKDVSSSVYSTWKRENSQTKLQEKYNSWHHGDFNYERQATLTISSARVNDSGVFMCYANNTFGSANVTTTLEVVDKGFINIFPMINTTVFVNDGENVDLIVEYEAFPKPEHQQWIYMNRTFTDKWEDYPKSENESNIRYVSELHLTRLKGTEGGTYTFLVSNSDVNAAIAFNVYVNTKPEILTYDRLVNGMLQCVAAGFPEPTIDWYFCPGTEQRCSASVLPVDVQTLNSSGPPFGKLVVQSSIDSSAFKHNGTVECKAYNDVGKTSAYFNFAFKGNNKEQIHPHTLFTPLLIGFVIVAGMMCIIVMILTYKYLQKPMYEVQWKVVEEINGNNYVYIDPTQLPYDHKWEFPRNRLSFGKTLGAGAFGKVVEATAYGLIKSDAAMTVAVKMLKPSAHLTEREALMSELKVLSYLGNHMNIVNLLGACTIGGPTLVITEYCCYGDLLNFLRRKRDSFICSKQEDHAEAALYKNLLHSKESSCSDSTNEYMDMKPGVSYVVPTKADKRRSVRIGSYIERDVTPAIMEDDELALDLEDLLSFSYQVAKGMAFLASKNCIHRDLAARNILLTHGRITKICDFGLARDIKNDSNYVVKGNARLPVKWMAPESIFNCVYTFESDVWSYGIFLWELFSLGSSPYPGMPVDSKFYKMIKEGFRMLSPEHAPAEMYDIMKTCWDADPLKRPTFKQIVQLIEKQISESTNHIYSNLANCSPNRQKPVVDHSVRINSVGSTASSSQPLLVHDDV
Summary of the method: (§1)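 Equilibrium Kd measured by competition against immobilized ligand; kinase as T7 phage fusion or HEK-293 DNA-tagged protein; 1 h RT; qPCR read-out of eluate.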

CSF-1R kinase = molecular target: T2, CSF-1R kinase (Homo sapiens, UniProt P07333); experiment: Competition binding assay, CSF-1R Kd
T2 construct: made in house; host or cells: T7 phage display or HEK-293 cells
T2 sequence (P07333 20-972): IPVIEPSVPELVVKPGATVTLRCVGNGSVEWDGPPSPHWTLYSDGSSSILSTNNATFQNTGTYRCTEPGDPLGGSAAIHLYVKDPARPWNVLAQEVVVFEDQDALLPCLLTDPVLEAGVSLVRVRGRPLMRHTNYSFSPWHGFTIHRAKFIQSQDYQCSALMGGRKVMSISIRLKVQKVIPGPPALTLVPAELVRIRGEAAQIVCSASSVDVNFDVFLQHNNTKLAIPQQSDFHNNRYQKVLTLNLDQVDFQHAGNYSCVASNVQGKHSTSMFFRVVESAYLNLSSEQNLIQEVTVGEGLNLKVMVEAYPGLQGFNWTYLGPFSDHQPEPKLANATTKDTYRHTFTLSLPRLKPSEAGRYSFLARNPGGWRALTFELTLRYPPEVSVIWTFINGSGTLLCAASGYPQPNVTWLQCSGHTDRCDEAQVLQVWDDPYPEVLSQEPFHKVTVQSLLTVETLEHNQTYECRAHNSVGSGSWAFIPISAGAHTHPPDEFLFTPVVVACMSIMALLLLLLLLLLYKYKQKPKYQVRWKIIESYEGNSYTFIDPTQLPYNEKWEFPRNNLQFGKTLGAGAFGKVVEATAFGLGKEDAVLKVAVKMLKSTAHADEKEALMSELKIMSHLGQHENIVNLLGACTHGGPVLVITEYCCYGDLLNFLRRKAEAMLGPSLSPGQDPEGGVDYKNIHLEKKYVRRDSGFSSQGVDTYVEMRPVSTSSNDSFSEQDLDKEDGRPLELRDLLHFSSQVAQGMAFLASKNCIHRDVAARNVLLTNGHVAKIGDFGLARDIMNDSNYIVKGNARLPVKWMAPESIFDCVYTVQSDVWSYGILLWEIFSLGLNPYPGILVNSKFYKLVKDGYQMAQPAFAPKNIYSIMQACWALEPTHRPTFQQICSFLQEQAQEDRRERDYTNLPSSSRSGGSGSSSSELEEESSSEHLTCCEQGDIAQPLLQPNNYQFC
Summary of the method: as §1

MV4-11 cells = experiment: MV4-11 cell proliferation assay (Alamar Blue); assay type: cell-based; settings: Homo sapiens, MV4-11, 72 h, 3 days incubation
Summary of the method: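 Flt3-ITD MV4-11 cells were serum-starved overnight in Iscove's with 0.5% FBS, then given compound at 9 half-log concentrations (0.5% DMSO) for 3 days at 37° C. Alamar Blue reduction was read after 3 h by fluorescence (560/590 nm). IC50 is the mean of duplicates versus negative control.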

FLT3 kinase = molecular target: T3, FLT3 kinase (Homo sapiens, UniProt P36888); experiment: Competition binding assay, FLT3 Kd
T3 construct: made in house; host or cells: T7 phage display or HEK-293 cells
T3 sequence (P36888 27-993): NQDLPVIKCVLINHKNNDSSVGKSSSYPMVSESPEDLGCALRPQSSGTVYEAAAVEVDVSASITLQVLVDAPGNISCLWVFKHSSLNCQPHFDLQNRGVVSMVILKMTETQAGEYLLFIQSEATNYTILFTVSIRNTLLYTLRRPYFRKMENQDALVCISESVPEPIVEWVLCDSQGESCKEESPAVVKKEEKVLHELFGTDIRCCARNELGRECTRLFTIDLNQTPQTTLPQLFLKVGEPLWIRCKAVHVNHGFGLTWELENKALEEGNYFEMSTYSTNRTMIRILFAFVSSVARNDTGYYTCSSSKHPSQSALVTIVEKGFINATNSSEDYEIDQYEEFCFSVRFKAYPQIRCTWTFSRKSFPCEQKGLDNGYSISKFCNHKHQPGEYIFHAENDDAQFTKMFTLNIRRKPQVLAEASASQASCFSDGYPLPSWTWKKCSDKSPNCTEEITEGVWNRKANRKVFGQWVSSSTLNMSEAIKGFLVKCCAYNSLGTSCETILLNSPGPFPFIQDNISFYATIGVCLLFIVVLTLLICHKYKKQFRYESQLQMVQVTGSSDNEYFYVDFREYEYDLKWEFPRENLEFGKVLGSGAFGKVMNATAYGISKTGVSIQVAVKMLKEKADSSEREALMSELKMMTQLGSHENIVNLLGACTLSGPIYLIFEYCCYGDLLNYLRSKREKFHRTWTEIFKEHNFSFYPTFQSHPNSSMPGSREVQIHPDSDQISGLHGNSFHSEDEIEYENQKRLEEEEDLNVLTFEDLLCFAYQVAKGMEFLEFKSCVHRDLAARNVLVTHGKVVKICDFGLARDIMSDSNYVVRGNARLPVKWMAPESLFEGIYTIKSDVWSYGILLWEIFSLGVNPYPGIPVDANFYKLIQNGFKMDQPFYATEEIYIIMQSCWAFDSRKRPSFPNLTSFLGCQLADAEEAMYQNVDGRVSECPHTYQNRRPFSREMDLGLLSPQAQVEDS
Summary of the method: as §1

SMILES | Kinase specificty: S(10)-359 panel [1] | pKd (KIT kinase) | pKd (CSF-1R kinase) | pIC50 (MV4-11 cells) | pKd (FLT3 kinase) | Kinase specificty: S(10)-386 panel [1]
CC(C)(C)c1cc(NC(=O)Nc2ccc(-c3cnc(NC4CC4)nc3)cn2)no1 [Example 64, 1-(5-tert-butylisoxazol-3-yl)-3-[5-(2-cyclopropylaminopyrimidin-5-yl)-pyridin-2-yl]-urea] | B (0.1<B≦0.2 nM) | ≥ 9.00 | ≥ 8.00 | 7.00 to 8.00 | ≥ 9.00 | –
CC(C)(F)c1cc(NC(=O)Cc2ccc(-c3ccc(NCCN4CCOCC4)nc3)cc2)on1 [Example 118, N-(3-(2-fluoropropan-2-yl)isoxazol-5-yl)-2-(4-(6-(2-morpholinoethylamino)pyridin-3-yl)phenyl)acetamide] | – | ≥ 9.00 | ≥ 8.00 | 7.00 to 8.00 | ≥ 9.00 | A (A≦0.1)
CS(=O)(=O)O.Nc1ccc(-c2ccc(CC(=O)Nc3cc(C4(C(F)(F)F)CC4)on3)cc2)c(F)n1 [Example 137, 6-fluoro-5-(4-(2-oxo-2-(5-(1-(trifluoromethyl)cyclopropyl)isoxazol-3-ylamino)ethyl)phenyl)pyridin-2-aminium methanesulfonate] | – | 8.00 to 9.00 | 7.00 to 8.00 | ≥ 9.00 | ≥ 9.00 | A (A≦0.1)
Nc1ccc(-c2ccc(CC(=O)Nc3cc(C4(C(F)(F)F)CCC4)on3)cc2)cn1 [Example 124, 2-(4-(6-aminopyridin-3-yl)phenyl)-N-(5-(1-(trifluoromethyl)cyclobutyl)isoxazol-3-yl)acetamide] | – | 8.00 to 9.00 | ≥ 8.00 | ≥ 9.00 | ≥ 9.00 | B (0.1<B≦0.2 nM)
CC1(c2cc(NC(=O)Cc3ccc(-c4cnc(N)c(C(F)(F)F)c4)cc3)no2)COC1.CS(=O)(=O)O [Example 135, 5-(4-(2-((5-(3-methyloxetan-3-yl)isoxazol-3-yl)amino)-2-oxoethyl)phenyl)-3-(trifluoromethyl)pyridin-2-aminium methanesulfonate] | – | 8.00 to 9.00 | ≥ 8.00 | 8.00 to 9.00 | ≥ 9.00 | B (0.1<B≦0.2 nM)
CC(C)(C)c1cc(NC(=O)Cc2ccc(-c3ccc(NCCS(C)(=O)=O)nc3)cc2)no1.CS(=O)(=O)O [Example 92, 5-(4-(2-(5-tert-butylisoxazol-3-ylamino)-2-oxoethyl)phenyl)-N-(2-(methylsulfonyl)ethyl)pyridin-2-aminium methanesulfonate] | – | 8.00 to 9.00 | ≥ 8.00 | 8.00 to 9.00 | ≥ 9.00 | B (0.1<B≦0.2 nM)
CC(F)(F)C1(c2cc(NC(=O)Cc3ccc(-c4ccc(N)nc4F)cc3)no2)CC1 [Example 159] | – | 8.00 to 9.00 | ≥ 8.00 | ≥ 9.00 | 8.00 to 9.00 | A (A≦0.1)
CC1(c2cc(NC(=O)Cc3ccc(-c4cnc(N)c(C(F)(F)F)c4)cc3)no2)CC1 [Example 161] | – | 8.00 to 9.00 | ≥ 8.00 | ≥ 9.00 | ≥ 9.00 | B (0.1<B≦0.2 nM)
CC(C)(C)c1cc(NC(=O)Cc2ccc(-c3ccc(NCCN4CCC(F)(F)CC4)nc3)cc2)no1.CS(=O)(=O)O [Example 108, 1-(2-(5-(4-(2-(5-tert-butylisoxazol-3-ylamino)-2-oxoethyl)phenyl)pyridin-2-ylamino)ethyl)-4,4-difluoropiperidinium methanesulfonate] | – | 8.00 to 9.00 | ≥ 8.00 | 8.00 to 9.00 | ≥ 9.00 | A (A≦0.1)
CC(C)(C)c1cc(NC(=O)Nc2ccc(-c3cnc(NCCN4CCOCC4)nc3)cc2F)no1 [Example 59] | B (0.1<B≦0.2 nM) | ≥ 9.00 | ≥ 8.00 | 8.00 to 9.00 | ≥ 9.00 | –
Nc1ccc(-c2ccc(CC(=O)Nc3cc(C4(C(F)(F)F)CCC4)on3)cc2)c(F)n1 [Example 167] | – | 8.00 to 9.00 | ≥ 8.00 | ≥ 9.00 | ≥ 9.00 | A (A≦0.1)
CC1(CCNc2ccc(-c3ccc(CC(=O)Nc4cc(C(C)(C)C)on4)cc3)cn2)COC1 [Example 122, N-(5-tert-butylisoxazol-3-yl)-2-(4-(6-(2-(3-methyloxetan-3-yl)ethylamino)pyridin-3-yl)phenyl)acetamide] | – | 7.00 to 8.00 | 6.30 to 7.00 | 7.00 to 8.00 | 8.00 to 9.00 | A (A≦0.1)
CC(C)(c1cc(NC(=O)Cc2ccc(-c3ccc(NCCN4CCOCC4)nc3)cc2)no1)C(F)(F)F.CS(=O)(=O)O [Example 109, 4-(2-(5-(4-(2-oxo-2-(5-(1,1,1-trifluoro-2-methylpropan-2-yl)isoxazol-3-ylamino)ethyl)phenyl)pyridin-2-ylamino)ethyl)morpholin-4-ium methanesulfonate] | – | 8.00 to 9.00 | ≥ 8.00 | ≥ 9.00 | ≥ 9.00 | B (0.1<B≦0.2 nM)
CC(C)(C)c1cc(NC(=O)Cc2ccc(-c3ccc(N)nc3F)cc2)on1.CS(=O)(=O)O [Example 119, 5-(4-(2-(3-tert-butylisoxazol-5-ylamino)-2-oxoethyl)phenyl)-6-fluoropyridin-2-aminium methanesulfonate] | – | 8.00 to 9.00 | ≥ 8.00 | ≥ 9.00 | ≥ 9.00 | A (A≦0.1)

Other lines, results leading:

Kinase specificty: S(10)-359 panel [1] | pKd (KIT kinase) | pKd (CSF-1R kinase) | pIC50 (MV4-11 cells) | pKd (FLT3 kinase) | Kinase specificty: S(10)-386 panel [1] | SMILES
A (A≦0.1) | ≥ 9.00 | ≥ 8.00 | ≥ 9.00 | ≥ 9.00 | – | CC(C)(C)c1cc(NC(=O)Nc2ccc(-c3cnc4c(c3)OCC(=O)N4)cc2)no1 [Example 3, 1-(5-tert-butylisoxazol-3-yl)-3-(4-(3-oxo-3,4-dihydro-2H-pyrido[3,2-b][1,4]oxazin-7-yl)phenyl)urea]
B (0.1<B≦0.2 nM) | ≥ 9.00 | ≥ 8.00 | ≥ 9.00 | ≥ 9.00 | – | CC(C)(C)c1cc(NC(=O)Nc2ccc(-c3cnc(N)c(COCCO)c3)cc2)no1 [Example 22, 1-(4-(6-amino-5-((2-hydroxyethoxy)methyl)pyridin-3-yl)phenyl)-3-(5-tert-butylisoxazol-3-yl)urea]
– | 8.00 to 9.00 | ≥ 8.00 | 8.00 to 9.00 | 8.00 to 9.00 | A (A≦0.1) | CC(C)(CF)c1cc(NC(=O)Nc2ccc(-c3ccc(N)nc3)cc2)on1 [Example 97, 1-(4-(6-aminopyridin-3-yl)phenyl)-3-(3-(1-fluoro-2-methylpropan-2-yl)isoxazol-5-yl)urea]
– | 8.00 to 9.00 | ≥ 8.00 | 8.00 to 9.00 | ≥ 9.00 | A (A≦0.1) | CC(C)(C)c1cc(NC(=O)Cc2ccc(-c3cnc(N)cc3Cl)cc2)no1.CS(=O)(=O)O [Example 150, 5-(4-(2-(5-tert-butylisoxazol-3-ylamino)-2-oxoethyl)phenyl)-4-chloropyridin-2-aminium methanesulfonate]
A (A≦0.1) | ≥ 9.00 | ≥ 8.00 | 8.00 to 9.00 | ≥ 9.00 | – | CC(C)(C)c1cc(NC(=O)Nc2ccc(-c3ccc(N)nc3)cn2)no1 [Example 17, 1-(6′-amino-[3,3′]bipyridinyl-6-yl)-3-(5-tert-butylisoxazol-3-yl)urea]
A (A≦0.1) | 8.00 to 9.00 | 7.00 to 8.00 | < 6.30 | 8.00 to 9.00 | – | CC(C)(C)c1cc(NC(=O)Nc2ccc(-c3ccc(N)nc3)s2)no1 [Example 19, 1-(5-(6-aminopyridin-3-yl)thiophen-2-yl)-3-(5-tert-butylisoxazol-3-yl)urea]
